According to US20260027068A1, “METHODS OF ADM[…]-KETAMINE” (Perception Neuroscience, Inc., priority 2022, published 2026):

Tested on: subjects with TRD
Test: Adverse events (TEAEs, SAEs) in the TRD study
Type: in vivo, human
Settings: 60 mg (n = 35)
Source text: The definitions of an AE and SAE can be found in Section F. AEs were reported by the subject (or, when appropriate, by a caregiver, surrogate, or the subject's legally authorized representative). The Investigator and any designees were responsible for detecting, documenting, and recording events that meet the definition of an AE or SAE and remained responsible for following up AEs that were serious, considered related to the study treatment or study procedures, or that caused the subject to discontinue from the study.
All AEs were collected from the signing of the ICF until the second follow-up visit (Day 15) at the time points specified in the Schedule of Activities (Section C). Medical occurrences that began before the start of study treatment but after obtaining informed consent were recorded on the Medical History/Current Medical Conditions section of the CRF, not the AE section. All SAEs were recorded and reported to the Sponsor or designee within 24 hours as indicated in Section F. The Investigator submitted any updated SAE data to the Sponsor or designee within 24 hours of it being available. Investigators were not obligated to actively seek AE or SAE information after the conclusion of study participation. However, if the Investigator learns of any SAE, including a death, at any time after a subject has been discharged from the study, and he/she considers the event to be reasonably related to the study treatment or study participation, the Investigator must promptly notify the Sponsor or designee. The method of recording, evaluating, and assessing the causality of AEs and SAEs and the procedures for completing and transmitting SAE reports are provided in Section F.
An AE is any untoward medical occurrence in a patient or subject, temporally associated with the use of study treatment, whether or not considered related to the study treatment. An AE can therefore be any unfavorable and unintended sign (including an abnormal laboratory finding), symptom, or disease (new or exacerbated) temporally associated with the use of study treatment.
If an event is not an AE per the definition above, then it cannot be an SAE even if serious conditions are met (e.g., hospitalization for signs/symptoms of the disease under study). A Serious Adverse Event (SAE) is defined as any untoward medical occurrence that, at any dose: a) results in death; b) is life-threatening; c) requires inpatient hospitalization or prolongation of existing hospitalization; d) results in persistent disability/incapacity; or e) is a congenital anomaly/birth defect. The term “life-threatening” in the definition of “serious” refers to an event in which the subject was at risk of death at the time of the event. […] In general, hospitalization signifies that the subject has been detained (usually involving at least an overnight stay) at the hospital or emergency ward for observation and/or treatment that would not have been appropriate in the physician's office or outpatient setting. Complications that occur during hospitalization are AEs. If a complication prolongs hospitalization or fulfills any other serious criteria, the event is serious. When in doubt as to whether “hospitalization” occurred or was necessary, the AE should be considered serious. […] The term disability means a substantial disruption of a person's ability to conduct normal life functions.
(MedDRA; Version 23.0 or higher). Treatment-emergent adverse events (TEAEs) are AEs with onset or worsening after the start of study treatment. The AE summaries will be primarily based on TEAEs. The number and percentage of subjects with TEAEs will be summarized by treatment group, system organ class, and preferred term for all TEAEs, treatment-related TEAEs, SAEs, serious TEAEs, severe TEAEs, TEAEs of special interest, and all TEAEs leading to study drug discontinuation. All TEAEs will be further summarized by maximum severity and causality. The TEAEs of special interest will be identified in the SAP. […]

CN[C@@]1(c2ccccc2Cl)CCCCC1=O [PCN 101]
Number of subjects with any treatment-emergent adverse events: 18 | Number of treatment-emergent adverse events: 53 | Subjects with any treatment-emergent adverse events: (%) of subjects: (51) | TEAE PT Alopecia: (%) of subjects: (3) | TEAE PT Alopecia: number of subjects: 1 | TEAE PT Aversion: (%) of subjects: (0) | TEAE PT Aversion: number of subjects: 0 | TEAE PT Balance disorder: (%) of subjects: (0) | TEAE PT Balance disorder: number of subjects: 0 | TEAE PT Blood pressure increased: (%) of subjects: (3) | TEAE PT Blood pressure increased: number of subjects: 1 | TEAE PT Bruxism: (%) of subjects: (0) | TEAE PT Bruxism: number of subjects: 0 | TEAE PT Confusional state: (%) of subjects: (3) | TEAE PT Confusional state: number of subjects: 1 | TEAE PT Defect conduction intraventricular: (%) of subjects: (3) | TEAE PT Defect conduction intraventricular: number of subjects: 1 | TEAE PT Derealisation: (%) of subjects: (9) | TEAE PT Derealisation: number of subjects: 3 | TEAE PT Diarrhoea: (%) of subjects: (0) | TEAE PT Diarrhoea: number of subjects: 0 | TEAE PT Dissociation: (%) of subjects: (0) | TEAE PT Dissociation: number of subjects: 0 | TEAE PT Dizziness: (%) of subjects: (20) | TEAE PT Dizziness: number of subjects: 7 | TEAE PT Dry mouth: (%) of subjects: (3) | TEAE PT Dry mouth: number of subjects: 1 | TEAE PT Dysarthria: (%) of subjects: (6) | TEAE PT Dysarthria: number of subjects: 2 | TEAE PT Dyspnoea exertional: (%) of subjects: (0) | TEAE PT Dyspnoea exertional: number of subjects: 0 | TEAE PT Energy increased: (%) of subjects: (3) | TEAE PT Energy increased: number of subjects: 1 | TEAE PT Euphoric mood: (%) of subjects: (3) | TEAE PT Euphoric mood: number of subjects: 1 | TEAE PT Fatigue: (%) of subjects: (3) | TEAE PT Fatigue: number of subjects: 1 | TEAE PT Feeling abnormal: (%) of subjects: (3) | TEAE PT Feeling abnormal: number of subjects: 1 | TEAE PT Feeling drunk: (%) of subjects: (6) | TEAE PT Feeling drunk: number of subjects: 2 | TEAE PT Haematuria: (%) of subjects: (0) | TEAE PT Haematuria: number of subjects: 0 | TEAE PT Headache: (%) of subjects: (6) | TEAE PT Headache: number of subjects: 2 | TEAE PT Hyperacusis: (%) of subjects: (0) | TEAE PT Hyperacusis: number of subjects: 0 | TEAE PT Hyperhidrosis: (%) of subjects: (0) | TEAE PT Hyperhidrosis: number of subjects: 0 | TEAE PT Hyperphagia: (%) of subjects: (3) | TEAE PT Hyperphagia: number of subjects: 1 | TEAE PT Hypoaesthesia oral: (%) of subjects: (3) | TEAE PT Hypoaesthesia oral: number of subjects: 1 | TEAE PT Hypoaesthesia: (%) of subjects: (0) | TEAE PT Hypoaesthesia: number of subjects: 0 | TEAE PT Increased appetite: (%) of subjects: (3) | TEAE PT Increased appetite: number of subjects: 1 | TEAE PT Influenza like illness: (%) of subjects: (0) | TEAE PT Influenza like illness: number of subjects: 0 | TEAE PT Infusion site hypoaesthesia: (%) of subjects: (3) | TEAE PT Infusion site hypoaesthesia: number of subjects: 1 | TEAE PT Left ventricular hypertrophy: (%) of subjects: (3) | TEAE PT Left ventricular hypertrophy: number of subjects: 1 | TEAE PT Lethargy: (%) of subjects: (3) | TEAE PT Lethargy: number of subjects: 1 | TEAE PT Limb discomfort: (%) of subjects: (0) | TEAE PT Limb discomfort: number of subjects: 0 | TEAE PT Logorrhoea: (%) of subjects: (0) | TEAE PT Logorrhoea: number of subjects: 0 | TEAE PT Memory impairment: (%) of subjects: (0) | TEAE PT Memory impairment: number of subjects: 0 | TEAE PT Muscle strain: (%) of subjects: (0) | TEAE PT Muscle strain: number of subjects: 0 | TEAE PT Muscular weakness: (%) of subjects: (3) | TEAE PT Muscular weakness: number of subjects: 1 | TEAE PT Nausea: (%) of subjects: (9) | TEAE PT Nausea: number of subjects: 3 | TEAE PT Paraesthesia: (%) of subjects: (6) | TEAE PT Paraesthesia: number of subjects: 2 | TEAE PT Rhinorrhoea: (%) of subjects: (0) | TEAE PT Rhinorrhoea: number of subjects: 0 | TEAE PT Sedation: (%) of subjects: (3) | TEAE PT Sedation: number of subjects: 1 | TEAE PT Sensory disturbance: (%) of subjects: (0) | TEAE PT Sensory disturbance: number of subjects: 0 | TEAE PT Sinusitis: (%) of subjects: (0) | TEAE PT Sinusitis: number of subjects: 0 | TEAE PT Skin abrasion: (%) of subjects: (3) | TEAE PT Skin abrasion: number of subjects: 1 | TEAE PT Slow speech: (%) of subjects: 0) | TEAE PT Slow speech: number of subjects: 0 | TEAE PT Smoke sensitivity: (%) of subjects: (3) | TEAE PT Smoke sensitivity: number of subjects: 1 | TEAE PT Somnolence: (%) of subjects: (11) | TEAE PT Somnolence: number of subjects: 4 | TEAE PT Tachycardia: (%) of subjects: (0) | TEAE PT Tachycardia: number of subjects: 0 | TEAE PT Throat tightness: (%) of subjects: (3) | TEAE PT Throat tightness: number of subjects: 1 | TEAE PT Time perception altered: (%) of subjects: (3) | TEAE PT Time perception altered: number of subjects: 1 | TEAE PT Urinary tract infection: (%) of subjects: (0) | TEAE PT Urinary tract infection: number of subjects: 0 | TEAE PT Venous injury: (%) of subjects: (0) | TEAE PT Venous injury: number of subjects: 0 | TEAE PT Vertigo: (%) of subjects: (0) | TEAE PT Vertigo: number of subjects: 0 | TEAE PT Vessel puncture site erythema: (%) of subjects: (0) | TEAE PT Vessel puncture site erythema: number of subjects: 0 | TEAE PT Vision blurred: (%) of subjects: (3) | TEAE PT Vision blurred: number of subjects: 1 | TEAE PT Visual impairment: (%) of subjects: (0) | TEAE PT Visual impairment: number of subjects: 0 | TEAE SOC Cardiac disorders: (%) of subjects: (6) | TEAE SOC Cardiac disorders: number of subjects: 2 | TEAE SOC Ear and labyrinth disorders: (%) of subjects: (0) | TEAE SOC Ear and labyrinth disorders: number of subjects: 0 | TEAE SOC Eye disorders: (%) of subjects: (3) | TEAE SOC Eye disorders: number of subjects: 1 | TEAE SOC Gastrointestinal disorders: (%) of subjects: (14) | TEAE SOC Gastrointestinal disorders: number of subjects: 5 | TEAE SOC General disorders and administration site conditions: (%) of subjects: (11) | TEAE SOC General disorders and administration site conditions: number of subjects: 4 | TEAE SOC Immune system disorders: (%) of subjects: (3) | TEAE SOC Immune system disorders: number of subjects: 1 | TEAE SOC Infections and infestations: (%) of subjects: (0) | TEAE SOC Infections and infestations: number of subjects: 0 | TEAE SOC Injury, poisoning and procedural complications: (%) of subjects: (3) | TEAE SOC Injury, poisoning and procedural complications: number of subjects: 1 | TEAE SOC Investigations: (%) of subjects: (3) | TEAE SOC Investigations: number of subjects: 1 | TEAE SOC Metabolism and nutrition disorders: (%) of subjects: (3) | TEAE SOC Metabolism and nutrition disorders: number of subjects: 1 | TEAE SOC Musculoskeletal and connective tissue disorders: (%) of subjects: (3) | TEAE SOC Musculoskeletal and connective tissue disorders: number of subjects: 1 | TEAE SOC Nervous system disorders: (%) of subjects: (40) | TEAE SOC Nervous system disorders: number of subjects: 14 | TEAE SOC Psychiatric disorders: (%) of subjects: (14) | TEAE SOC Psychiatric disorders: number of subjects: 5 | TEAE SOC Renal and urinary disorders: (%) of subjects: (0) | TEAE SOC Renal and urinary disorders: number of subjects: 0 | TEAE SOC Respiratory, thoracic and mediastinal disorders: (%) of subjects: (3) | TEAE SOC Respiratory, thoracic and mediastinal disorders: number of subjects: 1 | TEAE SOC Skin and subcutaneous tissue disorders: (%) of subjects: (3) | TEAE SOC Skin and subcutaneous tissue disorders: number of subjects: 1
